In PubChem BioAssay AID463206 (Broad Institute, 2010):
Activity calls are given as the source filed them.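 The calls were made as follows: active = caspase luminescence falls with dose and the half-maximal concentration AC50 from the fitted curve is at or below a set limit; inconclusive = flat fit at 30 to 70% signal loss, or invalid fit; inactive = AC50 above the limit, or signal rises instead.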

What follows are compounds tested on INS-1E cytokine-induced caspase-3/7, Caspase-Glo luminescence, 48 h (assay: suppression of cytokine-driven beta-cell apoptosis – INS-1E rat cells, luminescence, orthogonal assay for beta-cell apoptosis protection project, dose response (AID 463206)).

| Compound | AC50 |
| --- | --- |
| COC(=O)c1ccccc1NC1=C/C(=N\S(=O)(=O)c2cccs2)c2ccccc2C1=O | > 26 µM (inactive) |
| COc1cccc(/C=N/NC(=O)c2c(-c3ccccc3)noc2C)c1O | > 26 µM (inactive) |
| O=C(Nc1ccc(F)cc1)c1cccnc1 | > 26 µM (inactive) |
| Cc1ccc(C(C)C)c(OCc2ccc(C(=O)N/N=C/c3cccc(O)c3O)cc2)c1 | > 26 µM (inactive) |
| CC[C@H](C)[C@@H](C(=O)NCCCCCCCCCCC(=O)N1CCN(C(=O)OC(C)(C)C)CC1)n1cc(CCCCCNC(=O)OC(C)(C)C)nn1 | > 26 µM (inactive) |
| CC(C)c1cccc(C(C)C)c1OC(=O)[C@H]1OC(C(C)(C)C)=C[C@@H]1c1ccccc1 | > 26 µM (inactive) |
| S=C(NCCCN1CCOCC1)N1CCN(c2nc(-c3ccc(Cl)cc3)cs2)CC1 | > 12 µM (inactive) |
| COc1ccc(CNC[C@@H](CCCCN(C)Cc2ccc(OC)cc2)N2C[C@H](c3ccccc3)N(CCc3ccc(Cl)c(Cl)c3)C(=O)C2=O)cc1 | > 26 µM (inactive) |
| CCOC(=O)C1CCCN(S(=O)(=O)c2ccc(S(=O)(=O)N(CC)CC)cc2)C1 (stereo not given) | > 26 µM (inactive) |
| CC(=O)c1cccc(N=c2scc(-c3ccc(S(=O)(=O)N4CCOCC4)cc3)n2CCO)c1 | > 26 µM (inactive) |
| CC(C)NC(=S)NC(c1ccccc1)(c1ccccc1)c1ccccc1 | > 26 µM (inactive) |
| CCC(=O)NC(c1ccc(C)cc1)c1cc(Cl)c2cccnc2c1O (stereo not given) | > 26 µM (inactive) |
| Cc1ccc(Nc2c3c(nc4ccccc24)CCC3)cc1 | > 26 µM (inactive) |
| Cc1ccccc1NC1=C/C(=N\S(=O)(=O)c2ccc(C(=O)O)cc2)c2ccccc2C1=O | > 26 µM (inactive) |
| CCOc1cc(/C=C2\COc3ccccc3C2=O)cc(Br)c1OCC(=O)N(C)C | > 26 µM (inactive) |
| NC1=NC[C@H](Cc2ccccc2)N1CCCCC1CCCCC1 | > 26 µM (inactive) |
| COc1ccc2c(C(=O)NCc3ccc4c(c3)OCO4)c(-c3ccc(S(C)(=O)=O)cc3)sc2c1 | > 26 µM (inactive) |
| Cc1cc(N2CCN(c3nc4ccccc4s3)CC2)n2ncnc2n1 | > 26 µM (inactive) |
| O=Nc1c(O)c2ccccc2c2ccccc12 | > 26 µM (inactive) |
| CC(=O)Nc1sc2c(c1-c1nc3ccccc3s1)CCN(C(C)C)C2 | 3.1 µM |
| CCOC(=O)c1cnc(-n2nc(C)cc2C)nc1Nc1ccc(N(C)C)cc1 | > 26 µM (inactive) |
| CC1CC(=O)N(c2ccc(Br)cc2)C(=O)C1 | > 26 µM (inactive) |
| COc1cc(CNCCO)cc(Cl)c1OCc1ccc(Cl)cc1Cl | > 26 µM (inactive) |
| Nc1ccc(N2CCCCC2)cc1N1CCCCC1 | > 26 µM (inactive) |

| Compound | AC50 |
| --- | --- |
| Cc1ccc(N2C(=O)CSC2c2cccnc2)c(Cl)c1 (stereo not given) | > 26 µM (inactive) |
| COc1ccc(CCNc2c3ccccc3nc3ccccc23)cc1OC | 4.3 µM |
| COc1ccc(C2=NNC(=Nc3cc(S(=O)(=O)N(C)C)ccc3C)SC2)c(OC)c1 | 24.8 µM |
| Cc1sc2cc3c(c(C(=O)c4ccccc4)[n+]2c1C)-c1cccc2cccc-3c12 | > 26 µM (inactive) |
| COC(=O)C1=C(c2ccc(OCc3ccccc3)cc2)C[C@@H]2CC[C@H]1N2C(=O)NC1CCN(Cc2ccccc2)CC1 | > 26 µM (inactive) |
| Cc1ccc2cc(C3C(C#N)=C(N)Oc4c3ccc3cccnc43)c(=O)[nH]c2c1 (stereo not given) | > 26 µM (inactive) |
| O=[N+]([O-])c1cnc(Sc2ccncn2)s1 | > 26 µM (inactive) |
| CN(Cc1cccnc1)C(=O)c1cc(COc2ccc3ncccc3c2)on1 | > 26 µM (inactive) |
| CCCCNC1=CC(=O)C(=O)c2ccccc21 | > 26 µM (inactive) |
| O=C(N/N=C/c1ccc(O)c2ncccc12)c1cccc(Br)c1 | > 26 µM (inactive) |
| Cc1c(C(=O)N/N=C/c2c(O)ccc3ccccc23)nnn1-c1nonc1N | > 26 µM (inactive) |
| Cn1cc(C(=O)N/N=C/c2c(O)ccc3ccccc23)ccc1=O | > 26 µM (inactive) |
| N=c1ccn(CC(=O)c2ccc(-c3ccccc3)cc2)cc1 | > 26 µM (inactive) |
| CC[C@@H](C(=O)[C@@H](C)[C@@H](O)[C@H](C)CCc1ccc(C)c(O)c1C(=O)O)[C@H]1O[C@](CC)([C@H]2CC[C@](O)(CC)[C@H](C)O2)C[C@@H]1C | > 12 µM (inactive) |
| CCN1c2ccccc2NC2N=C(OC)C(c3ccccc3)C21 (stereo not given) | > 26 µM (inactive) |
| Cn1c(=O)[nH]c(=O)c2c1nc([N+](=O)[O-])n2Cc1ccccc1 | > 26 µM (inactive) |
| COc1ccc(-c2csc(NC(=O)c3ccccc3NS(=O)(=O)c3ccc(F)c(F)c3)n2)cc1 | > 26 µM (inactive) |
| COc1ccc(C(=O)NC(=S)NNC(=O)c2cnccn2)cc1 | > 26 µM (inactive) |
| Cc1[nH]c2c(ccc3ccccc32)c1C1C(CCN)C1(C)C (stereo not given) | > 26 µM (inactive) |
| O=C(NC(Nc1nc2ccc([N+](=O)[O-])cc2s1)(C(F)(F)F)C(F)(F)F)c1cccnc1 | > 26 µM (inactive) |
| COc1ccc(CCNc2cc(N3CCN(C(=O)c4ccccc4OC)CC3)ccc2[N+](=O)[O-])cc1OC | > 26 µM (inactive) |
| Cc1ccc2c(C)ccc(O)c2n1 | > 26 µM (inactive) |
| O=C(c1ccco1)N1N=C(c2ccc(Br)cc2)CC1c1ccco1 (stereo not given) | > 26 µM (inactive) |
| Cc1ccc2c(c1)[nH]c1c(N3CCN(Cc4ccccc4)CC3)ncnc12 | > 26 µM (inactive) |

| Compound | AC50 |
| --- | --- |
| O=C1C(Cl)=C(NCCN2CCCCC2)C(=O)c2ccccc21 | > 26 µM (inactive) |
| CCOc1cc(CNCCc2ccc(S(N)(=O)=O)cc2)ccc1OCc1ccc(Cl)cc1 | > 26 µM (inactive) |
| CCCCCCCCCn1c2c(c(=N)c3c1CCC3)CCC2 | > 12 µM (inactive) |
| CC(=O)c1c(C)[nH]c(C(=O)OCC(=O)Nc2ccc(Cl)cc2[N+](=O)[O-])c1C | > 26 µM (inactive) |
| CC(C)(C)c1cc(C=C(C#N)C#N)cc(C(C)(C)C)c1O | > 26 µM (inactive) |
| Cc1ccccc1N=Nc1ccc(O)c2ncccc12 | > 26 µM (inactive) |
| Cc1oc2c(c1C(=O)c1ccccc1)C(=O)C(=O)c1ccccc1-2 | > 26 µM (inactive) |
| Cc1ccccc1OCCn1c(C)nc2ccccc21 | > 26 µM (inactive) |
| COc1ccc(OC)c(NC(=O)CSc2nnc(-c3cccnc3)s2)c1 | > 26 µM (inactive) |
| Cn1c(/C=C/c2ccc([N+](=O)[O-])o2)nc2ccccc2c1=O | > 26 µM (inactive) |
| COc1ccc2nc3cc(Cl)ccc3c(Nc3cc(CN4CCCC4)c(O)c(CN4CCCC4)c3)c2n1 | > 26 µM (inactive) |
| CC(=O)c1ccc(NC(=S)NCc2cccnc2)cc1 | > 26 µM (inactive) |
| CC[C@H]1CN2CCc3cc(OC)c(OC)cc3[C@@H]2C[C@@H]1C[C@H]1NCCc2cc(OC)c(OC)cc21 | > 26 µM (inactive) |
| N#Cc1c(Nc2ccccc2)sc(C(=O)c2ccc(F)cc2)c1N | > 26 µM (inactive) |
| CC(C)C(=O)NC(=S)/C=C1/N(C)c2ccccc2C1(C)C | > 26 µM (inactive) |
| Nc1nc(N)c2cc(Sc3ccc4ccccc4c3)ccc2n1 | > 26 µM (inactive) |
| Cc1cc(C)cc(OCCCn2ccnc2)c1 | > 26 µM (inactive) |
| C/C(=N\NC(=O)c1nnn(-c2nonc2N)c1CN1CCc2ccccc21)c1ccccc1O | > 26 µM (inactive) |
| CCN(CC)CCOC(=O)c1ccc(N/C=C(/C#N)c2nc(-c3ccc4c(c3)OCO4)cs2)cc1 | > 26 µM (inactive) |
| N#CC(c1ccc(Cl)cc1)c1ccc2c(C(F)(F)F)cc(C(F)(F)F)nc2n1 (stereo not given) | > 26 µM (inactive) |
| CC(C)(C)c1ccc(C2CC2C(=O)N/N=C\c2ccc[nH]2)cc1 (stereo not given) | > 26 µM (inactive) |
| c1ccc(C(c2ccccc2)N2CCN(c3nc4ccccc4n4cnnc34)CC2)cc1 | > 26 µM (inactive) |
| O=C(c1ccc([N+](=O)[O-])s1)N1CCN(c2cccc(Cl)c2)CC1 | > 26 µM (inactive) |
| O=C(NCc1ccccc1)C1=C[C@H](c2csc3ccccc23)C[C@H](OCCCCO)O1 | > 26 µM (inactive) |

| Compound | AC50 |
| --- | --- |
| COc1ccc(Nc2nc(N3CCCCC3)c3ccccc3n2)cc1 | 21.1 µM |
| CCN(CC)CCn1nc2c3c(cccc3c1=O)-c1ccccc1-2 | 8.24 µM |
| Cc1nnc(N/N=C/c2cc([N+](=O)[O-])c(N3CCC(C)CC3)cc2N2CCC(C)CC2)n1N | > 26 µM (inactive) |
| COc1ccc2[nH]c3c(C)c4ccncc4c(C)c3c2c1 | 1.32 µM |
| O=C(Nc1nc2ccc(F)cc2s1)c1ccccn1 | > 26 µM (inactive) |
| Cc1ccc(-n2c(Cl)c(Cl)nc(Cl)c2=O)cc1 | > 26 µM (inactive) |
| O=C(N/N=C/c1cc([N+](=O)[O-])ccc1O)c1cc(-c2ccccc2)nc2ccccc12 | > 26 µM (inactive) |
| CCN(CC)S(=O)(=O)c1cc([N+](=O)[O-])ccc1NNC(=O)Nc1ccc(Cl)c(Cl)c1 | > 26 µM (inactive) |
| COc1cccc(/C=N/NC(=O)c2c(C)nc3ccc(Br)cn23)c1O | > 26 µM (inactive) |
| C=CC(C)(C)c1c(O)c(CC=C(C)C)c(O)c2c(=O)c3ccc(O)c(O)c3oc12 | > 26 µM (inactive) |
| CC(=O)Nc1ccc(S(=O)(=O)N2c3ccccc3NC(=O)CC2C)c(Cl)c1 (stereo not given) | > 26 µM (inactive) |
| O=C(N/N=C/c1cc(Cl)ccc1O)C(=O)Nc1ccccc1OC(F)(F)C(F)F | > 26 µM (inactive) |
| Cc1ccc(CSC(Nc2ccc(F)cc2)=C(C#N)C#N)cc1 | > 26 µM (inactive) |
| O=C(Nc1cc(Sc2ccccn2)cc([N+](=O)[O-])c1)c1ccc(Cl)cc1 | > 26 µM (inactive) |
| Cc1ccc(-c2cn(-c3ccccc3)c3[n+]2CCCS3)cc1 | > 26 µM (inactive) |
| O=[N+]([O-])c1c(Nc2ccccn2)cc(Cl)c2nonc12 | > 26 µM (inactive) |
| CCCCCCCCCCOC(=O)Cn1c(COc2ccccc2C)[n+](C)c2ccccc21 | > 26 µM (inactive) |
| CC1CCC/C=C/C2CC(O)CC2C(O)/C=C/C(=O)O1 (stereo not given) | > 26 µM (inactive) |
| O=C(Nc1nc2ccccc2s1)c1cc(-c2ccccc2)nn1-c1ccccc1 | > 26 µM (inactive) |
| O=C1C(Nc2ccccc2)=C/C(=N/S(=O)(=O)c2cccs2)c2ccccc21 | > 26 µM (inactive) |
| Cc1ccc(N=Nc2c(O)ccc3n[nH]nc23)cc1 | > 26 µM (inactive) |
| COc1ccc(C(=O)N/N=C(\c2ccccc2)c2ccccn2)cc1 | > 26 µM (inactive) |
| Cc1ncc(CO)c(/C=N/NC(=O)c2cc3c(s2)CCCC3)c1O | > 26 µM (inactive) |
